Test results reported in ChEMBL document CHEMBL1158278, “New macrocyclic spermine (budmunchiamine) alkaloids from Albizia gummifera: with some observations on the structure--activity relationships of the budmunchiamines” (J Nat Prod, 1996).
Converted amounts (≈) assume the structure as drawn.

Key:
Bacillus subtilis [1] = assay: Antibacterial activity against Bacillus subtilis NCTC 8326; assay type: functional
Escherichia coli [2] = assay: Antibacterial activity against Escherichia coli NCTC 9001 at 50 ug/disk; assay type: functional; settings: read-out: IZ
[3] = Toxicity against brine shrimp; assay type: organism-based; settings: artemia, in vivo
Pseudomonas aeruginosa [4] = assay: Antibacterial activity against Pseudomonas aeruginosa NCTC 6750; assay type: functional
Staphylococcus aureus [5] = assay: Antibacterial activity against Staphylococcus aureus NCTC 6751 at 50 ug/disk; assay type: functional; settings: read-out: IZ
Pseudomonas aeruginosa [6] = assay: Antibacterial activity against Pseudomonas aeruginosa NCTC 6750 at 50 ug/disk; assay type: functional; settings: read-out: IZ
Staphylococcus aureus [7] = assay: Antibacterial activity against Staphylococcus aureus NCTC 6751; assay type: functional
Escherichia coli [8] = assay: Antibacterial activity against Escherichia coli NCTC 9001; assay type: functional
Bacillus subtilis [9] = assay: Antibacterial activity against Bacillus subtilis NCTC 8326 at 50 ug/disk; assay type: functional; settings: read-out: IZ

SMILES	MIC (Bacillus subtilis [1]) [µg/mL]	zone of inhibition at 50 µg/disc (Escherichia coli [2]) [mm]	LC50 [3] [µg/mL]	MIC (Pseudomonas aeruginosa [4]) [µg/mL]	zone of inhibition at 50 µg/disc (Staphylococcus aureus [5]) [mm]	zone of inhibition at 50 µg/disc (Pseudomonas aeruginosa [6]) [mm]	MIC (Staphylococcus aureus [7]) [µg/mL]	MIC (Escherichia coli [8]) [µg/mL]	zone of inhibition at 50 µg/disc (Bacillus subtilis [9]) [mm]
CCCCCCCCCCCCCCCC1CC(=O)NCCCN(C)CCCCN(C)CCCN1 (configuration not stated)	20 (≈ 40.4 µM)	10	16.5 (≈ 33.3 µM)	32 (≈ 64.7 µM)	12	10	15 (≈ 30.3 µM)	27 (≈ 54.6 µM)	11
CCCCCCCCCCCCCCCC1CC(=O)NCCCNCCCCN(C)CCCN1C (configuration not stated)		9	18.2 (≈ 36.8 µM)		11	10			10
CCCCCCCCCCCCCCCC1CC(=O)NCCCN(C)CCCCNCCCN1C (configuration not stated)		9	15.9 (≈ 32.1 µM)		11	9			10
CCCCCCCC(O)CCCCCC1CC(=O)NCCCN(C)CCCCN(C)CCCN1C (configuration not stated)	45 (≈ 90.6 µM)	7	79.7 (≈ 160 µM)	84 (≈ 169 µM)	8	7	35 (≈ 70.4 µM)	72 (≈ 145 µM)	8
CCCCCCCCCC(O)CCCCCC1CC(=O)NCCCN(C)CCCCN(C)CCCN1 (configuration not stated)		7	60.4 (≈ 118 µM)		9	7			9
CCCCCCCCCC(O)CCCCCC1CC(=O)NCCCN(C)CCCCN(C)CCCN1C (configuration not stated)	42 (≈ 80 µM)	7	69.1 (≈ 132 µM)	75 (≈ 143 µM)	9	8	30 (≈ 57.2 µM)	64 (≈ 122 µM)	8
CCCCCCCCCCCC1CC(=O)NCCCN(C)CCCCN(C)CCCN1C (configuration not stated) [BUDMUNCHIAMINE A]	15 (≈ 33.1 µM)	11	4 (≈ 8.83 µM)	30 (≈ 66.3 µM)	10	10	18 (≈ 39.8 µM)	25 (≈ 55.2 µM)	11
CCCCCCCCCCCCCC1CC(=O)NCCCN(C)CCCCN(C)CCCN1 (configuration not stated) [BUDMUNCHIAMINE G]	24 (≈ 51.4 µM)	10	12.3 (≈ 26.3 µM)	35 (≈ 75 µM)	10	9	18 (≈ 38.6 µM)	30 (≈ 64.3 µM)	12
CCCCCCCCCCCCCCCC1CC(=O)NCCCN(C)CCCCN(C)CCCN1C (configuration not stated) [BUDMUNCHIAMINE K]	19 (≈ 37.3 µM)	11	6.6 (≈ 13 µM)	28 (≈ 55 µM)	11	11	15 (≈ 29.5 µM)	24 (≈ 47.2 µM)	10
O=C(N[C@H](CO)[C@H](O)c1ccc([N+](=O)[O-])cc1)C(Cl)Cl [CHLORAMPHENICOL]	7 (≈ 21.7 µM)	26		26 (≈ 80.5 µM)	24	17	7 (≈ 21.7 µM)	12 (≈ 37.1 µM)	31
